Measurements taken from patent US7687609B2, “Galectin-glycosaminoglycan complex and method for controlling galectin activity” (National Institute of Advanced Industrial Science and …, priority 2006, dated 2010).

Experiments:
[1] = molecular target: T1, Galectin-1 (Homo sapiens, UniProt P09382); assay: FAC affinity test on galectin-immobilized column; format: binding; details: pyridyl-aminated carbohydrate; galectin-1 immobilized 0.8 mg/ml; less than 5 μl = below interaction detection limit
T1 construct: made in house
Procedure: (§1) Various galectin molecules-immobilized columns were prepared by the method described by Nakamura S, Yagi F, Totani K, Ito γ and Hirabayashi J in FEBS J., 272, 2784-2799 (2005), using NHS Sepharose (manufactured by Amersham Bioscience) as the carrier for immobilizing galectin molecules and in accordance with the instructions attached thereto (put in parentheses is immobilization concentration, mg galectin/ml carrier).
(§2) Each galectin molecule was immobilized onto the carrier at the following concentration; galectin-1 (0.8 mg/ml), galectin-3 (0.5 mg/ml), galectin-8N (3.6 mg/ml), galectin-8C (4.0 mg/ml), galectin-9N (3.6 mg/ml), galectin-9C (3.0 mg/ml). The carrier on which each galectin was immobilized was charged into a stainless steel miniature column (2 mm in inner diameter, 10 mm in length; manufactured by Shimadzu Corp.).
(§3) A high performance liquid chromatography (HPLC) system was equipped with a galectin molecule-immobilized column, and the test was carried out by the method described in Nakamura S, Yagi F, Totani K, Ito γ and Hirabayashi J in FEBS J., 272, 2784-2799 (2005).
(§4) As the negative control sample, pyridyl-aminated N-acetylglucosamine (PA-GlcNAc, manufactured by Takara Bio, pyridyl-aminated glycosaminoglycan-oligosaccharide sample control) or pyridyl-aminated pullulan (prepared by carrying out pyridylamination of standard pullulan manufactured by Shodex, pyridyl-aminated glycosaminoglycan polysaccharide sample control) was used, and a V−V0 value was calculated from their eluate volume (V0 value) measured by fluorescence detection and the eluate volume (V value) of the sample, namely pyridyl-aminated glycosaminoglycan carbohydrate, and this was used as the index of interaction strength (Protein, Nucleic Acid and Enzyme, 48(8), 1206-1212 (2003)).
(§5) V−V0 values of pyridyl-aminated glycosaminoglycans (HA, CH, DN, NAH, CSA, CSB, CSC, CSD, CSE, KS-I and KS-II) were calculated based on PA-GlcNAc, and V−V0 values of pyridyl-aminated glycosaminoglycan-oligosaccharides (G2K1, G1L1, G4L4, L2L2, L2L4, L4L4, SL2L4 and CH3 to CH12) based on pyridyl-aminated pullulan, respectively.
(§6) In this connection, when the calculated value of the V−V0 value was less than 5 μl, it was regarded as less than the interaction detection limit in this example.

[2] = molecular target: T2, Galectin-3 (Homo sapiens, UniProt P17931); assay: FAC affinity test on galectin-immobilized column; format: binding; details: pyridyl-aminated carbohydrate; galectin-3 immobilized 0.5 mg/ml; less than 5 μl = below interaction detection limit
T2 construct: made in house
Procedure: as §1, §2, §3, §4, §5, §6

[3] = molecular target: T3, Galectin-9C (Homo sapiens, UniProt O00182); assay: FAC affinity test on galectin-immobilized column; format: binding; details: pyridyl-aminated carbohydrate; galectin-9C immobilized 3.0 mg/ml; less than 5 μl = below interaction detection limit
T3 construct: N and C respectively represent N-terminal side carbohydrate-recognition domain and C-terminal side carbohydrate-recognition domain; made in house
Procedure: as §1, §2, §3, §4, §5, §6

[4] = molecular target: T4, Galectin-9N (Homo sapiens, UniProt O00182); assay: FAC affinity test on galectin-immobilized column; format: binding; details: pyridyl-aminated carbohydrate; galectin-9N immobilized 3.6 mg/ml; less than 5 μl = below interaction detection limit
T4 construct: N and C respectively represent N-terminal side carbohydrate-recognition domain and C-terminal side carbohydrate-recognition domain; made in house
Procedure: as §1, §2, §3, §4, §5, §6

[5] = molecular target: T2, Galectin-3; assay: FAC competitive inhibition test, binding of galectin-3 with LNnT; details: 5.0 nM PA-LNnT; for V2 − V0: V1 − V0 30.6 μl
Procedure: (§7) A model test on a competitive inhibition was carried out by FAC, in which binding of a galectin molecule with a carbohydrate which binds to the galectin molecule is inhibited by a glycosaminoglycan molecule. The FAC was carried out in accordance with the above-described example (1). In addition, as a model carbohydrate which is known to be bound to the galectin molecule, a pyridylamination product of lacto-N-neotetraose (LNnT hereinafter, Gal β1-4 GlcNAc β1-3 Gal β1-4 Glc, purchased from Seikagaku Corporation) was used.
(§8) In the test, 5.0 nM in final concentration of PA-LNnT sample solution was mixed with various concentration of glycosaminoglycan molecule (not pyridyl-aminated, namely an inhibitory carbohydrate) to measure the eluate volume (V2 value) by FAC, and the inhibition ratio (%) was calculated as follows from the eluate volume (V1 value) before the mixing and the eluate volume (V0 value) of a negative control sample. Inhibition ratio (%)=100×(V1−V2)/(V1−V0) Formula 1
(§9) In this connection, the unlabeled (not pyridyl-aminated) CH4, CH6, CH10, HA4 and CSA4 were respectively prepared at Seikagaku Corporation in accordance with a conventionally known method.

[6] = molecular target: T4, Galectin-9N; assay: FAC competitive inhibition test, binding of galectin-9N with LNnT; details: for Inhibition ratio / V2 − V0: 5.0 nM PA-LNnT; for V2 − V0: V1 − V0 20.3 μl
Procedure: as §7, §8, §9

[7] = final conc. 10 μM unlabeled inhibitor
[8] = final conc. 50 μM unlabeled inhibitor
[9] = final conc. 250 μM unlabeled inhibitor
[10] = final conc. 1 μM unlabeled inhibitor
[11] = final conc. 5 μM unlabeled inhibitor

T1 sequence (P09382 whole entry): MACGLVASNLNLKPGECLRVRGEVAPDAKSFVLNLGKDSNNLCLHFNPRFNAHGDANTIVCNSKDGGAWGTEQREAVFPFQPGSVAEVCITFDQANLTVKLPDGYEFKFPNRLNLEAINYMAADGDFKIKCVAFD
T4 sequence (O00182 17-148 limits assumed): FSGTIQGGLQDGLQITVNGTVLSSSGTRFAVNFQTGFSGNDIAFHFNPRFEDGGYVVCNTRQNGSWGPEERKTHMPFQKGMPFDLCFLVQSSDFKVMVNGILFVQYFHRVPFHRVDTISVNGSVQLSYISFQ
T2 sequence (P17931 whole entry): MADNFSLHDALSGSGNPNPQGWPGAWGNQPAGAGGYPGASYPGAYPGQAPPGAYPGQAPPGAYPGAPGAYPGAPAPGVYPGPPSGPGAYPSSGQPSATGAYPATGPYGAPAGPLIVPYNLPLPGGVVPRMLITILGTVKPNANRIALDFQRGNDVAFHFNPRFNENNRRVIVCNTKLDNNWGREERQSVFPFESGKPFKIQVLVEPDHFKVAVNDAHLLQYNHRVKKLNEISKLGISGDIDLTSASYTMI
T3 sequence (O00182 227-355 limits assumed): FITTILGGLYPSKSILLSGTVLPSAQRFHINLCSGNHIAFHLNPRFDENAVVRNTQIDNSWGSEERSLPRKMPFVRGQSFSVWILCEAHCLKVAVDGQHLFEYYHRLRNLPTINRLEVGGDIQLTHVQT

With `CC(=O)N[C@H]1[C@H](O[C@H]2[C@H](O)[C@@H](O)[C@H](O[C@H]3[C@@H](O)[C@@H](CO)O[C@@H](O[C@H]4[C@H](O)[C@@H](O)[C@H](O[C@H]5[C@@H](O)[C@@H](CO)OC(O)[C@@H]5NC(C)=O)O[C@@H]4C(=O)O)[C@@H]3NC(C)=O)O[C@@H]2C(=O)O)O[C@H](CO)[C@H](O)[C@@H]1O[C@@H]1O[C@H](C(=O)O)[C@@H](O)[C@H](O)[C@H]1O` (stereo partly drawn) [CH6, GlcA β1-3 (GalNAc β1-4 GlcA β1-3)2 GalNAc] the “V − V0 Value” [1] was less than 5.0 µL, the “V − V0 Value” [2] was 5.8 ± 1.4 µL and the “V − V0 Value” [3] was less than 5.0 µL. The “V − V0 Value” [4] was 33.3 ± 3.0 µL, the Inhibition ratio [5, 7] was 5.2% and the “V2 − V0” value [5, 7] was 29.0 µL.
In the case of `CC(=O)N[C@H]1[C@H](O[C@H]2[C@H](O)[C@@H](O)[C@H](O[C@H]3[C@@H](O)[C@@H](CO)O[C@@H](O[C@H]4[C@H](O)[C@@H](O)[C@H](O[C@H]5[C@@H](O)[C@@H](CO)O[C@@H](O[C@H]6[C@H](O)[C@@H](O)[C@H](O[C@H]7[C@@H](O)[C@@H](CO)O[C@@H](O[C@H]8[C@H](O)[C@@H](O)[C@H](O[C@H]9[C@@H](O)[C@@H](CO)OC(O)[C@@H]9NC(C)=O)O[C@@H]8C(=O)O)[C@@H]7NC(C)=O)O[C@@H]6C(=O)O)[C@@H]5NC(C)=O)O[C@@H]4C(=O)O)[C@@H]3NC(C)=O)O[C@@H]2C(=O)O)O[C@H](CO)[C@H](O)[C@@H]1O[C@@H]1O[C@H](C(=O)O)[C@@H](O)[C@H](O)[C@H]1O` (stereo partly drawn) [CH10, GlcA β1-3 (GalNAc β1-4 GlcA β1-3)4 GalNAc], the “V − V0 Value” [1] is reported as less than 5.0 µL, the “V − V0 Value” [2] is reported as 11.8 ± 3.3 µL and the “V − V0 Value” [3] is reported as less than 5.0 µL. The “V − V0 Value” [4] was 171.5 µL, the Inhibition ratio [5, 7] was 38.2% and the “V2 − V0” value [5, 7] was 18.9 µL.
With `CC(=O)N[C@H]1[C@H](O[C@H]2[C@H](O)[C@@H](O)[C@H](O[C@H]3[C@@H](O)[C@@H](CO)OC(O)[C@@H]3NC(C)=O)O[C@@H]2C(=O)O)O[C@H](CO)[C@H](O)[C@@H]1O[C@@H]1O[C@H](C(=O)O)[C@@H](O)[C@H](O)[C@H]1O` (stereo partly drawn) [CH4, GlcA β1-3 GalNAc β1-4 GlcA β1-3 GalNAc] the “V − V0 Value” [1] was less than 5.0 µL, the “V − V0 Value” [2] was less than 5.0 µL and the “V − V0 Value” [4] was 45.3 ± 4.8 µL. The Inhibition ratio [5, 7] was 12.7%, the “V2 − V0” value [5, 7] was 26.7 µL and the Inhibition ratio [5, 8] was 32.0%. The “V2 − V0” value [5, 8] was 20.8 µL, the Inhibition ratio [5, 9] was 48.0% and the “V2 − V0” value [5, 9] was 15.9 µL. The “inhibition of binding of galectin-9N with LNnT (in words)” value ([6]; Table 5) was “inhibited by CH4 concentration-dependently”, the Inhibition ratio [6, 10] was 16.7% and the “V2 − V0” value [6, 10] was 16.9 µL. For the same compound, the Inhibition ratio [6, 11] was 26.1%, the “V2 − V0” value [6, 11] was 15.0 µL and the Inhibition ratio [6, 7] was 32.5%. For the same compound, the “V2 − V0” value [6, 7] was 13.7 µL, the Inhibition ratio [6, 8] was 71.4% and the “V2 − V0” value [6, 8] was 5.8 µL.
